Experimental data: patent EP4813972A1, “CRYSTAL FORM OF BENZENE SULFONATE CONTAINING PIPERIDINE RING COMPOUND, AND PREPARATION METHOD THEREFOR AND USE THEREOF” (Shanghai Curegene Pharmaceutical Co., Ltd., priority 2023, dated 2025)
Values after ≈ are worked out from the molar mass of the structure shown.

Tests used:
[1] = Stability study of crystal forms (crystal form status by XRPD after storage); format: physicochemical; details: 14 days
Experimental: Test method: The sample was prepared on a zero-background silicon wafer by gently pressing to obtain a flat surface. About 10-20 mg of a sample was used for XRPD analysis.

[2] = Solubility study of crystal forms (aqueous HCl pH 1 / 20 mM phosphate buffer pH about 7, HPLC analysis); format: physicochemical
Experimental: The detailed parameters were as follows:
An aqueous HCl solution at pH 1 was prepared. […] After dissolution by stirring, the solution was adjusted to pH = 1 with 1 N NaOH or 1 N HCl. The timing was started, and after T = 3 h, the pH was measured. […] When T = 4 h, the dissolution status was observed, and a dilution factor was selected according to the dissolution status. 50% ACN was used as a diluent for HPLC analysis. When T = 24 h, the dissolution state was observed. With reference to the concentration data at 4 h and the dissolution state at 24 h, a dilution factor was selected, and HPLC analysis was performed. The solubility was calculated according to the HPLC analysis results described above.
The aqueous HCl solution at pH 1 in the step described above was replaced with a 20 mM phosphate buffer solution at pH of about 7, and the steps described above were repeated. The solubility was calculated.

Structure (SMILES): COC(=O)[C@H](c1ccccc1Cl)N1CC[C@@H](SCOC(=O)OC(C)C)/C(=C\C(=O)O)C1 [Crystal form F1]
- Crystal form after treatment ([1]; 25 °C/60% RH, open container): Crystal form F1
- Crystal form after treatment ([1]; Sealed container at 2-8 °C): Crystal form F1
- Crystal form after treatment ([1]; Sealed container at 40 °C): Crystal form F1
- Crystal form after treatment ([1]; Sealed container at 60 °C): Crystal form F1
- solubility at 4 h ([2]; 20 mm phosphate buffer, pH=7, 4 h): 9.89 mg/mL (≈ 21 mM)
- solubility at 24 h ([2]; 20 mm phosphate buffer, pH=7, 24 h): 6.14 mg/mL (≈ 13 mM)
- solubility at 4 h ([2]; aqueous hcl, pH=1, 4 h): 11.5 mg/mL (≈ 24.4 mM)
- solubility at 24 h ([2]; aqueous hcl, pH=1, 24 h): 11.4 mg/mL (≈ 24.1 mM)
- Dissolution status ([2]; pH=1, 4 h): Clear solution
- Dissolution status ([2]; pH=1, 24 h): Clear solution
- Dissolution status ([2]; pH=7, 4 h): Clear solution
- Dissolution status ([2]; pH=7, 24 h): Clear solution
